Assays:
Assay type in all cases: cell-based
[1] = molecular target: human EGFR E746-A750 deletion and T790M Mutation (DT) (Homo sapiens (Human), UniProt P00533, DEL746-750/T790M); test: Ba/F3-EGFR-Del/T790M cell anti-proliferative assay (CellTiter 96 MTS, 72 h); details: Ba/F3-EGFR-Del/T790M cells; for IC50: read-out: EGFR exon 19 deletion and T790M mutation IC50
Protocol: An expression vector, pLVX-IRES puro (Clontech) coding for human EGFR E746-A750 deletion and T790M Mutation, was transfected into HEK293 cells by the Trans-Lentiviral ORF Packaging System (Thermo Scientific), to produce virus encoding EGFR exon 19 deletion and T790M mutations. […] Ba/F3 cells expressing EGFR E746-A750 deletion and T790M Mutation (named Ba/F3-EGFR-Del/T790M) can proliferate in the absence of IL-3. The anti-proliferative activity of compounds was determined as follows: BaF3-EGFR-Del/T790M cells seeded in 96 well plates (2500 cells/well) were treated with test compound (dissolved in DMSO) at a series of concentrations (4-fold dilution, top concentration: 10,000 nM). The plates were incubated for 72 h in a 37° C. incubator with 5% CO2, and the number of viable cells in each well were measured indirectly by CellTiter 96® Aqueous One Solution Cell Proliferation Assay (Promega; this assay is a colorimetric method for determining the number of viable cells through measurement of their metabolic activity by detection of enzymatic conversion of tetrazolium salts into blue formazan derivatives). Reagent (20 μL) was added into each well, and the plates were returned to the incubator for 2 h. The absorbance in each well was then measured at 490 nm using an Envision plate reader (Perkin Elmer).

[2] = molecular target: human EGFR exon 20 insertion ASV (V769_D770insASV) (Homo sapiens (Human), UniProt P00533, INS769ASV); test: Ba/F3-EGFR-Exon20-ASV cell anti-proliferative assay (CellTiter 96 MTS, 72 h); details: Ba/F3-EGFR-Exon20-ASV cells;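 note: Ba/F3 cells bearing the EGFR exon 20 ASV insertion, a line able to proliferate without IL-3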
Sequence of human EGFR exon 20 insertion ASV (V769_D770insASV) (P00533 other isoform, or with tags, fused parts or gaps ins ASV behind 769): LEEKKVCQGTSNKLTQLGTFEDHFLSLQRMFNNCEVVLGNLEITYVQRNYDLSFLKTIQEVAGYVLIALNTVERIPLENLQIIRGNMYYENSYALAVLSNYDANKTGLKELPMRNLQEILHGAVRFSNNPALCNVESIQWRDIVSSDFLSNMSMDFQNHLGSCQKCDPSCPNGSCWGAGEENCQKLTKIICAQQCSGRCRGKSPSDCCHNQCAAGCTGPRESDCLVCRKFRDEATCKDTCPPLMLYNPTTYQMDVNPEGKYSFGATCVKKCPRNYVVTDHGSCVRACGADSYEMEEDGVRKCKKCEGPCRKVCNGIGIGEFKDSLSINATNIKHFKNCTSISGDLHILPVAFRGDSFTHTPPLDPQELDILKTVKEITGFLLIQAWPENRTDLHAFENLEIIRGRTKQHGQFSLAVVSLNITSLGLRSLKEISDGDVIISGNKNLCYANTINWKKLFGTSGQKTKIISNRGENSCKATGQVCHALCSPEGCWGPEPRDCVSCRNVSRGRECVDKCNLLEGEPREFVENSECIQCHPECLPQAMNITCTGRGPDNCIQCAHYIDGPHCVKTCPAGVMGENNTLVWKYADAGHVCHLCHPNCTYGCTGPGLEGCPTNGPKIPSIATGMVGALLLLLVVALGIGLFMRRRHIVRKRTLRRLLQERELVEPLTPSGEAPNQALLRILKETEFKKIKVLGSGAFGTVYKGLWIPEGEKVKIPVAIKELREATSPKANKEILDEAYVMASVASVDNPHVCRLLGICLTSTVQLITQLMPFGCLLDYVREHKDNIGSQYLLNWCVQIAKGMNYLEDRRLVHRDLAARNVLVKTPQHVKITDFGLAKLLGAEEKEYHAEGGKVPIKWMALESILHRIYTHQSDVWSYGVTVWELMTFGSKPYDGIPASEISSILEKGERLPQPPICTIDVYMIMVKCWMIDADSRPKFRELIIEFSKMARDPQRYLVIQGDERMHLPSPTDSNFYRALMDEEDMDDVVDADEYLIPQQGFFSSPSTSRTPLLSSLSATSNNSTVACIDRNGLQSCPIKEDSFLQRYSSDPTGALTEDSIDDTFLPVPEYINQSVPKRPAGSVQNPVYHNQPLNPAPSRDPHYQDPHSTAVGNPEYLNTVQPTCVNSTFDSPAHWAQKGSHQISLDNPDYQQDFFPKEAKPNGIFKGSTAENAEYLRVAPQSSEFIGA
Protocol: Ba/F3 cells expressing EGFR exon 20 insertions (named Ba/F3-EGFR-Exon20-NPG or Ba/F3-EGFR-Exon20-ASV) can proliferate in the absence of IL-3. The anti-proliferative activity of compounds were determined as follows: BaF3-EGFR-Exon20 cells (NPG or ASV) seeded in 96 well plates (2500 cells/well) were treated with test compound (dissolved in DMSO) at a series of concentrations (4-fold dilution, top concentration: 10,000 nM). The plates were incubated for 72 h in a 37° C. incubator with 5% CO2, and the number of viable cells in each well were measured indirectly by CellTiter 96® Aqueous One Solution Cell Proliferation Assay (Promega) This assay is a colorimetric method for determining the number of viable cells through measurement of their metabolic activity by detection of enzymatic conversion of tetrazolium salts into blue formazan derivatives. Reagent (20 μL) was added into each well, and the plates were returned to the incubator for 2 h. The absorbance in each well was then measured at 490 nm using an Envision plate reader (Perkin Elmer).

[3] = molecular target: human EGFR exon 20 insertion NPG (H773_V774insNPG) (Homo sapiens, UniProt P00533, INS773NPG, cells depend on it); test: Ba/F3-EGFR-Exon20-NPG cell anti-proliferative assay (CellTiter 96 MTS, 72 h); details: read-out: EGFR exon 20 NPG insertion IC50
Sequence of human EGFR exon 20 insertion NPG (H773_V774insNPG) (P00533 with tags, fused parts or gaps INS773NPG limits assumed): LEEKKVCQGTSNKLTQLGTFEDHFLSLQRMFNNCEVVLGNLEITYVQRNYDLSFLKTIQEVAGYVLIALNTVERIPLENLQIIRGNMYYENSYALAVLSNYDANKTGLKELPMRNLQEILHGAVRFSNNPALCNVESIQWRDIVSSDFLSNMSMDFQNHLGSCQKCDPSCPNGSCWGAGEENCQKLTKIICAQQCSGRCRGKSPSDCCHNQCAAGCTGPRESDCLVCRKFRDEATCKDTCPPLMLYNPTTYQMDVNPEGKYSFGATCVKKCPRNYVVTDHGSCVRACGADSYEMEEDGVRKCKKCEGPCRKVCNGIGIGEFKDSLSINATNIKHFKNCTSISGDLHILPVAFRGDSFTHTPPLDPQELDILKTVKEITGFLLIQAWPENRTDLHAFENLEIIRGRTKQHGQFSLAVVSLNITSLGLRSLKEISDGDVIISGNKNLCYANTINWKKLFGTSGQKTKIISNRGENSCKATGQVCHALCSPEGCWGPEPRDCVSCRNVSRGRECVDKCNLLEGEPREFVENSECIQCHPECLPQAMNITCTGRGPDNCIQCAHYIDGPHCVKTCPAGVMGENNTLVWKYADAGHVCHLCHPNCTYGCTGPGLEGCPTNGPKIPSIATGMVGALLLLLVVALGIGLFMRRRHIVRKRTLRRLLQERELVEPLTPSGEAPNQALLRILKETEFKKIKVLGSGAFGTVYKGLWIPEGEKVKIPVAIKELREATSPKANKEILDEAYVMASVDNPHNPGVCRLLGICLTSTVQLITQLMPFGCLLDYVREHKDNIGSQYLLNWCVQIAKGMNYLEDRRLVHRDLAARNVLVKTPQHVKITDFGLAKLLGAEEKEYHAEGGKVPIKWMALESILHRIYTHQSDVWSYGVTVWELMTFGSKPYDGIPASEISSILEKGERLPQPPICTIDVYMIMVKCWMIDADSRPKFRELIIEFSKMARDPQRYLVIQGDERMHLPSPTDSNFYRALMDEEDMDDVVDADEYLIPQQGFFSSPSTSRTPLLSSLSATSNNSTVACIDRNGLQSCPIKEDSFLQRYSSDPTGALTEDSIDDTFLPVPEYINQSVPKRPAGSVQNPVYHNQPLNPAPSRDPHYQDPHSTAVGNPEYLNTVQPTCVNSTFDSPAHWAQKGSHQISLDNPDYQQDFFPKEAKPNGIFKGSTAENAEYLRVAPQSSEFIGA

[4] = molecular target: Her2 exon 20 YVMA insertion (A775_G776ins YVMA) (Homo sapiens (Human), UniProt P04626, INS775YVMA); test: Ba/F3-Her2 Exon20 YVMA cell anti-proliferative assay (CellTiter 96 MTS, 72 h); details: Ba/F3-Her2 Exon20 YVMA cells
Sequence of Her2 exon 20 YVMA insertion (A775_G776ins YVMA) (P04626 other isoform, or with tags, fused parts or gaps ins YVMA behind 775): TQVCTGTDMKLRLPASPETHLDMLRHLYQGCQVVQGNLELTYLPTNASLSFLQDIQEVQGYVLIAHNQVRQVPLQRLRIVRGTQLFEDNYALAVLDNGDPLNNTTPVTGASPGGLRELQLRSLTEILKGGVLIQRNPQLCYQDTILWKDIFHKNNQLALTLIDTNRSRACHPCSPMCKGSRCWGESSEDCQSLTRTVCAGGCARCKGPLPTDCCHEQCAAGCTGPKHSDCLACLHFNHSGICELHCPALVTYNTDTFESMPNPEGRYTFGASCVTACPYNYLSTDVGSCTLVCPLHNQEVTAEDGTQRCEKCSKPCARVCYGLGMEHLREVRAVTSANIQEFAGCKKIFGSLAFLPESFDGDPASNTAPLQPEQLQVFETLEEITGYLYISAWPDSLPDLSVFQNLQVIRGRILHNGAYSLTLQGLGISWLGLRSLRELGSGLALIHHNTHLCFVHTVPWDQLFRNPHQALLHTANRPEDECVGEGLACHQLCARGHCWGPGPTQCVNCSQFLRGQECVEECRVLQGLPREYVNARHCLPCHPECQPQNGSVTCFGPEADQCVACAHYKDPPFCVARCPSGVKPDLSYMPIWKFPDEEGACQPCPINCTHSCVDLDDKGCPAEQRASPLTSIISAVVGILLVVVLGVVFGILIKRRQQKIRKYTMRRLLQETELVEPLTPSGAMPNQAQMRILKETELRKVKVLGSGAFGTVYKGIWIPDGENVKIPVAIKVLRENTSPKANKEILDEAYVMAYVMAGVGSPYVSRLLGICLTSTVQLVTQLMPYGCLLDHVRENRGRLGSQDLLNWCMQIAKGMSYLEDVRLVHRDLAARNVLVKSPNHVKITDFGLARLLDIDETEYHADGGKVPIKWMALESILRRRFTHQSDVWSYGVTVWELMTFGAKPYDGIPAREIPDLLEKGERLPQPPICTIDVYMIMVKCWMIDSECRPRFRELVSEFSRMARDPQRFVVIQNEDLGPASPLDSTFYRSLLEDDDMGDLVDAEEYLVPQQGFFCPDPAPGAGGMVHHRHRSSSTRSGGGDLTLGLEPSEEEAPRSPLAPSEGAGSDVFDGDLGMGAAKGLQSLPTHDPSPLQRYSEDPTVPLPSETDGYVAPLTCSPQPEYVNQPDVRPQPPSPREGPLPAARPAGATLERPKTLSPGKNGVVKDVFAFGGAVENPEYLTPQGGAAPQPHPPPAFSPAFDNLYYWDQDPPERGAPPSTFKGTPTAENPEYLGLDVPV
Text: Ba/F3 cells expressing Her2 Exon20 YVMA insertions (named Ba/F3-Her2 Exon20 YVMA) can proliferate in the absence of IL-3.

Sequence of human EGFR E746-A750 deletion and T790M Mutation (DT) (P00533 other isoform, or with tags, fused parts or gaps T790M/del E746-A750): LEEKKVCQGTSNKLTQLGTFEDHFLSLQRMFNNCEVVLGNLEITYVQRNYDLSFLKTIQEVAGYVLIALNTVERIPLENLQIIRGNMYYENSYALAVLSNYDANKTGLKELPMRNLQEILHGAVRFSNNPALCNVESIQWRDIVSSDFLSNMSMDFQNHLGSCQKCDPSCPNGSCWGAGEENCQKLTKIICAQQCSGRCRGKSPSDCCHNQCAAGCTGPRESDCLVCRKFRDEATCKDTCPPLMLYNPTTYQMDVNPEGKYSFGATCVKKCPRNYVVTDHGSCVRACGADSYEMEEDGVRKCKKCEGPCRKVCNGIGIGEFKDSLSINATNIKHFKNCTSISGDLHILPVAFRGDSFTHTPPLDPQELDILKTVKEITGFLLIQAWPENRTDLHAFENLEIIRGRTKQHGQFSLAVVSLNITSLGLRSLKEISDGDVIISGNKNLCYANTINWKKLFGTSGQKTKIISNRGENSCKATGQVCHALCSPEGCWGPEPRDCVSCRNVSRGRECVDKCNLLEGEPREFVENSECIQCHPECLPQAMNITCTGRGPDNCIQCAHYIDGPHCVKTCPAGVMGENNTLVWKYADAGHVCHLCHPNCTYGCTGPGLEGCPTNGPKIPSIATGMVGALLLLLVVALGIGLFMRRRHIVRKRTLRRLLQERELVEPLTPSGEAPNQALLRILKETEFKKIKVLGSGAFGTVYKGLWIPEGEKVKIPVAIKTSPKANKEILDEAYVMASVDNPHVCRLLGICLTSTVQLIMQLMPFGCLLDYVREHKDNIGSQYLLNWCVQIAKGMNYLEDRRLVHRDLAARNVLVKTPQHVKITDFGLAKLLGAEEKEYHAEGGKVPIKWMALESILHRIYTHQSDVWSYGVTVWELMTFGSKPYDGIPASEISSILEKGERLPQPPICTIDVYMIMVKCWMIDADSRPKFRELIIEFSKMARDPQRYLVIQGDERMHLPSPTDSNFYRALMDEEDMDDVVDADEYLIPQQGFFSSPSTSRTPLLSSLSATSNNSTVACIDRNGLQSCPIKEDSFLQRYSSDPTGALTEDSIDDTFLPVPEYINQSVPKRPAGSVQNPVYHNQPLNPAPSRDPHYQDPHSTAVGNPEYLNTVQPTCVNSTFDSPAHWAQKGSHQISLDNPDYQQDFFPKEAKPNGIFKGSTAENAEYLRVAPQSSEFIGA

Structure (SMILES) | IC50 [1] | IC50 [2] | IC50 [3] | IC50 [4] | EGFR exon 19 deletion and T790M mutation IC50 [1]
C=CC(=O)Nc1cc(Nc2ncc(C(=O)OC3COC3)c(-c3cn(C)c4ccccc34)n2)c(OC)cc1N(C)CCN(C)C [Example 11, oxetan-3-yl 2-((5-acrylamido-4-((2-(dimethylamino)ethyl)(methyl)amino)-2-methoxyphenyl)amino)-4-(1-methyl-1H-indol-3-yl)pyrimidine-5-carboxylate] | < 100 nM | < 100 nM | < 100 nM | < 100 nM | –
C=CC(=O)Nc1ccc(OC)c(Nc2ncc(C#N)c(-c3cn(C)c4cc(OCCC5CCCN5C)ccc34)n2)c1 (stereo not drawn) [Example 23, N-(3-((5-cyano-4-(1-methyl-6-(2-(1-methylpyrrolidin-2-yl)ethoxy)-1H-indol-3-yl)pyrimidin-2-yl)amino)-4-methoxyphenyl)acrylamide] | < 100 nM | 100 to 500 nM | < 100 nM | 500 to 1000 nM | –
C=CC(=O)Nc1cc(Nc2ncc(Cl)c(-c3cn(C)c4ccccc34)n2)c(OC)cc1C#CCN(C)C [Example 45, N-(5-((5-chloro-4-(1-methyl-1H-indol-3-yl)pyrimidin-2-yl)amino)-2-(3-(dimethylamino)prop-1-yn-1-yl)-4-methoxyphenyl)acrylamide] | < 100 nM | – | 100 to 500 nM | 500 to 1000 nM | –
C=CC(=O)Nc1cc(Nc2ncc(Cl)c(-c3cn(C)c4ccccc34)n2)c(OC)cc1C#CC(C)(C)N(C)C [Example 46, N-(5-((5-chloro-4-(1-methyl-1H-indol-3-yl)pyrimidin-2-yl)amino)-2-(3-(dimethylamino)-3-methylbut-1-yn-1-yl)-4-methoxyphenyl)acrylamide] | < 100 nM | – | 100 to 500 nM | 500 to 1000 nM | –
C=CC(=O)Nc1cc(Nc2ncc(Cl)c(-c3cnn4ccccc34)n2)c(OC)cc1OCCN1CCOCC1 [Example 50, N-(5-((5-chloro-4-(pyrazolo[1,5-a]pyridin-3-yl)pyrimidin-2-yl)amino)-4-methoxy-2-(2-morpholinoethoxy)phenyl)acrylamide] | < 100 nM | – | > 1000 nM | > 1000 nM | –
C=CC(=O)Nc1cc(Nc2ncc(N(C)C(=O)C(C)C)c(-c3cn(C)c4ccccc34)n2)c(OC)cc1N(C)CCN(C)C [Example 40, N-(2-((2-(dimethylamino)ethyl)-(methyl)-amino)-4-methoxy-5-((4-(1-methyl-1H-indol-3-yl)-5-(N-methylisobutyramido)-pyrimidin-2-yl)amino)phenyl)acrylamide] | – | 100 to 500 nM | 100 to 500 nM | > 1000 nM | C (Group C compounds have an IC50 value for the indicated mutant between greater than about 500 to about 1 μM)
C=CC(=O)Nc1cc(Nc2ncc(C(=O)O[C@@H]3CCOC3)c(-c3cn(C)c4ccccc34)n2)c(OC)cc1N(C)CCN(C)C [Example 37, (R)-tetrahydrofuran-3-yl 2-((5-acrylamido-4-((2-(dimethylamino)ethyl)-(methyl)amino)-2-methoxyphenyl)amino)-4-(1-methyl-1H-indol-3-yl)pyrimidine-5-carboxylate] | < 100 nM | < 100 nM | < 100 nM | 100 to 500 nM | –
C=CC(=O)Nc1cc(Nc2ncc(C(=O)OC(C)C)c(-c3c[nH]c4ccccc34)n2)c(OC)cc1N(C)C[C@H]1CCCN1C [Example 64, isopropyl (R)-2-((5-acrylamido-2-methoxy-4-(methyl((1-methylpyrrolidin-2-yl)methyl)amino)phenyl)amino)-4-(1H-indol-3-yl)pyrimidine-5-carboxylate] | < 100 nM | < 100 nM | < 100 nM | < 100 nM | –
C=CC(=O)Nc1cc(Nc2ncc(Cl)c(-c3cnn4ccccc34)n2)c(OC)cc1N(C)CCN(CC)CC [Example 53, N-(5-((5-chloro-4-(pyrazolo[1,5-a]pyridin-3-yl)pyrimidin-2-yl)amino)-2-((2-(diethylamino)ethyl)-(methyl)amino)-4-methoxyphenyl)acrylamide] | < 100 nM | – | 100 to 500 nM | 500 to 1000 nM | –
C=CC(=O)Nc1cc(Nc2nccc(-c3c(-c4cncc(Cl)c4)n(C)c4ccccc34)n2)c(OC)cc1N(C)CCN(C)C [Example 6, N-(5-((4-(2-(5-chloropyridin-3-yl)-1-methyl-1H-indol-3-yl)pyrimidin-2-yl)amino)-2-((2-(dimethylamino)ethyl)(methyl)amino)-4-methoxyphenyl)acrylamide] | < 100 nM | < 100 nM | < 100 nM | 100 to 500 nM | –
C=CC(=O)Nc1cc(Nc2ncc(Cl)c(-c3cnn4ccccc34)n2)c(OC)cc1N1CCC(N(C)C)C1 (stereo not drawn) [Example 55, N-(5-((5-chloro-4-(pyrazolo[1,5-a]pyridin-3-yl)pyrimidin-2-yl)amino)-2-(3-(dimethylamino)pyrrolidin-1-yl)-4-methoxyphenyl)acrylamide] | < 100 nM | > 1000 nM | 100 to 500 nM | > 1000 nM | –
C=CC(=O)Nc1cc(Nc2nccc(-c3cn(C)c4cc(C(=O)OC)ccc34)n2)c(OC)cc1N(C)CCN(C)C [Example 82, methyl 3-(2-((5-acrylamido-4-((2-(dimethylamino)ethyl)(methyl)amino)-2-methoxyphenyl)amino)pyrimidin-4-yl)-1-methyl-1H-indole-6-carboxylate] | < 100 nM | 100 to 500 nM | < 100 nM | 100 to 500 nM | –
C=CC(=O)Nc1cc(Nc2ncc(C(=O)OC)c(-c3cn(C)c4ccccc34)n2)c(OC)cc1N(C)CCN(C)C [Example 8, methyl 2-((5-acrylamido-4-((2-(dimethylamino)ethyl)(methyl)amino)-2-methoxyphenyl)amino)-4-(1-methyl-1H-indol-3-yl)pyrimidine-5-carboxylate] | < 100 nM | < 100 nM | < 100 nM | < 100 nM | –
C=CC(=O)Nc1cc(Nc2ncc(Cl)c(-c3cnn4ccccc34)n2)c(OC)cc1N(C)CCN1CCN(C)CC1 [Example 27, N-(5-((5-chloro-4-(pyrazolo[1,5-a]pyridin-3-yl)pyrimidin-2-yl)amino)-4-methoxy-2-(methyl(2-(4-methylpiperazin-1-yl)ethyl)amino)phenyl)acrylamide] | < 100 nM | – | 500 to 1000 nM | > 1000 nM | –
C=CC(=O)Nc1cc(Nc2ncc(Cl)c(-c3cn(C)c4c5c(ccc34)CCC5)n2)c(OC)cc1N(C)CCN(C)C [Example 43, N-(5-((5-chloro-4-(1-methyl-1,6,7,8-tetrahydrocyclopenta[g]indol-3-yl)pyrimidin-2-yl)amino)-2-((2-(dimethylamino)ethyl)(methyl)amino)-4-methoxyphenyl)acrylamide] | < 100 nM | – | < 100 nM | 100 to 500 nM | –
C=CC(=O)Nc1cc(Nc2nccc(-c3cn(C)c4ccccc34)n2)c(OC)cc1N(C)CCNC [Example 57, N-(4-methoxy-2-(methyl(2-(methylamino)ethyl)amino)-5-((4-(1-methyl-1H-indol-3-yl)pyrimidin-2-yl)amino)phenyl)acrylamide] | – | 100 to 500 nM | < 100 nM | 100 to 500 nM | –
C=CC(=O)Nc1cc(Nc2ncc(Cl)c(-c3cnn4ccccc34)n2)c(OC)cc1OC(COC)CN(CC)CC (stereo not drawn) [Example 47, N-(5-((5-chloro-4-(pyrazolo[1,5-a]pyridin-3-yl)pyrimidin-2-yl)amino)-2-((1-(diethylamino)-3-methoxypropan-2-yl)oxy)-4-methoxyphenyl) acrylamide] | < 100 nM | – | 100 to 500 nM | 500 to 1000 nM | –
C=CC(=O)Nc1cc(Nc2ncc(Cl)c(-c3cnn4ccccc34)n2)c(OC)cc1N(C)CCN(C)CCF [Example 33, N-(5-((5-chloro-4-(pyrazolo[1,5-a]pyridin-3-yl)pyrimidin-2-yl)amino)-2-((2-((2-fluoroethyl)(methyl)amino)ethyl)(methyl)amino)-4-methoxyphenyl)acrylamide] | < 100 nM | – | 100 to 500 nM | 500 to 1000 nM | –
C=CC(=O)Nc1cc(Nc2ncc(Cl)c(-c3cnn4ccccc34)n2)c(OC)cc1N(C)CCN1CCOCC1 [Example 54, N-(5-((5-chloro-4-(pyrazolo[1,5-a]pyridin-3-yl)pyrimidin-2-yl)amino)-4-methoxy-2-(methyl(2-morpholinoethyl)amino)phenyl)-acrylamide] | < 100 nM | – | 500 to 1000 nM | > 1000 nM | –
C=CC(=O)Nc1cc(Nc2ncc(CC)c(-c3cnn4ccccc34)n2)c(OC)cc1N(C)CCN(C)C [Example 1, N-(2-((2-(dimethylamino)ethyl)(methyl)amino)-5-((5-ethyl-4-(pyrazolo[1,5-a]pyridin-3-yl)pyrimidin-2-yl)amino)-4-methoxyphenyl)acrylamide] | < 100 nM | – | < 100 nM | 100 to 500 nM | –
C=CC(=O)Nc1cc(Nc2ncc(Cl)c(-c3cnn4ccccc34)n2)c(OC)cc1OCCN1CCCC1 [Example 49, N-(5-((5-chloro-4-(pyrazolo[1,5-a]pyridin-3-yl)pyrimidin-2-yl)amino)-4-methoxy-2-(2-(pyrrolidin-1-yl)ethoxy)phenyl)acrylamide] | < 100 nM | – | 100 to 500 nM | 500 to 1000 nM | –
C=CC(=O)Nc1cc(Nc2ncc(Cl)c(-c3cn(C)c4ccccc34)n2)c(OC)cc1O[C@@H](COCC)CN(C)C [Example 44, (R)-N-(5-((5-chloro-4-(1-methyl-1H-indol-3-yl)pyrimidin-2-yl)amino)-2-((1-(dimethylamino)-3-ethoxypropan-2-yl)oxy)-4-methoxyphenyl)acrylamide] | < 100 nM | – | 100 to 500 nM | 500 to 1000 nM | –
